This note sets out measurements from PubChem BioAssay AID1198 (NMMLSC, 2008).

The source made the active and inactive calls.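 How the source made its calls: active means EC50 under 10 microM for raising side scatter, a sign of cell differentiation; inactive means the rest, including fits that never converged.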

For this assay, the system named is LNCaP side scatter shift, flow cytometry, 4 days. The assay can be described thus: LNCaP side scatter shift induction by compounds – cell-based, flow cytometry, side scatter granularity, dose response (AID 1198). For orientation: In flow cytometry, cells or beads pass a laser one at a time.

As to `CCOc1cccc2cc(-c3cn4cc(C)ccc4n3)c(=O)oc12`, the EC50 was 20.6 µM (inactive).

`Cc1cc(N2CCN(C)CC2)nc2ccc(NC(=O)c3ccc4c(c3)OCO4)cc12`: the EC50 was 10.4 µM (inactive).

Consider `CCOc1ccc(-c2cc(C(=O)NCCCN3CCN(CC)CC3)c3ccccc3n2)cc1`, for which the EC50 was 6.41 µM.

For the compound `COc1ccc(N2CCN(CCCNC(=O)CC3Oc4ccc(C)cc4NC3=O)CC2)cc1` (configuration not stated), the EC50 is 27 µM (inactive).

Turning to `N=c1n(CCN2CCCCC2)c2ccccc2n1CC(O)COc1ccccc1` (configuration not stated), the EC50 was 0.994 µM.

Turning to `Cc1oc(-c2ccc(Cl)cc2)nc1CN1CCC(C(=O)NCCCN2CCOCC2)CC1`, the EC50 was 3 µM.

For `CCCN(CCC)CCNC(=O)C1CCN(Cc2nc(-c3ccc(Cl)cc3)oc2C)CC1`, the EC50 is 0.768 µM.

Turning to `Cc1ccccc1-c1nc(CN2CCCC(C(=O)NCCCN3CCOCC3)C2)c(C)o1` (configuration not stated), the EC50 was 7.03 µM.

Turning to `Cc1ccccc1-c1nc(CN2CCC(C(=O)NCCCN3CCOCC3)CC2)c(C)o1`, the EC50 is 6.69 µM.

With `Cn1c(C(=O)NCCCN2CCN(c3cccc(Cl)c3)CC2)cc2c(=O)n(C)c3ccccc3c21`, the EC50 is 0.87 µM.

Regarding `COc1cc2nc(N3CCN(C(=O)C4COc5ccccc5O4)CC3)nc(N)c2cc1OC` (configuration not stated), the EC50 was 3.95 µM.

For the compound `CCn1c(=O)cc(SCC(=O)NCCCN2CCN(c3ccccc3F)CC2)c2ccccc21`, the EC50 is 8.92 µM.

Usually EC50 stands for the concentration that produces a half-maximal response.
